Results taken from the supplement of paper PMC10307832.

Legend:
Bleomycin + AZD7762 = compound: CC1=C(N=C(N=C1N)[C@H](CC(=O)N)NC[C@@H](C(=O)N)N)C(=O)N[C@@H]([C@H](C2=CN=CN2)OC3C(C(C(C(O3)CO)O)O)OC4C(C(C(C(O4)CO)O)OC(=O)N)O)C(=O)N[C@H](C)[C@H]([C@H](C)C(=O)N[C@@H]([C@@H](C)O)C(=O)NCCC5=NC(=CS5)C6=NC(=CS6)C(=O)NCCC[S+](C)C)O [Bleomycin] + NC(=O)Nc1cc(-c2cccc(F)c2)sc1C(=O)N[C@H]1CCCNC1 [AZD7762] (partner 0.2 µM); experiment: relative viability (nuclei count vs DMSO), 5 days (fraction); higher = more cells survive; settings: main component drawn
Outline: (§1)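 Values are medians from duplicate plates. Each reflects relative viability, defined as the nuclei count of treated wells over that of vehicle wells. Lung cancer cell lines in 1536-well plates were pin-tool dosed one day after seeding with one drug alone or with a fixed anchor-drug dose plus five library-drug doses (not always all listed) in √10 steps, then fixed, stained and imaged at 4× after 5 days.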

Bleomycin + Vorinostat = compound: CC1=C(N=C(N=C1N)[C@H](CC(=O)N)NC[C@@H](C(=O)N)N)C(=O)N[C@@H]([C@H](C2=CN=CN2)OC3C(C(C(C(O3)CO)O)O)OC4C(C(C(C(O4)CO)O)OC(=O)N)O)C(=O)N[C@H](C)[C@H]([C@H](C)C(=O)N[C@@H]([C@@H](C)O)C(=O)NCCC5=NC(=CS5)C6=NC(=CS6)C(=O)NCCC[S+](C)C)O [Bleomycin] + O=C(CCCCCCC(=O)Nc1ccccc1)NO [Vorinostat] (partner 1 µM); experiment: as above; settings: main component drawn
Outline: as §1

Cell Line	relative viability (Bleomycin + AZD7762; first compound 0.01 µM)	relative viability (Bleomycin + AZD7762; first compound 0.03162 µM)	relative viability (Bleomycin + AZD7762; first compound 0.1 µM)	relative viability (Bleomycin + AZD7762; first compound 0.3162 µM)	relative viability (Bleomycin + AZD7762; first compound 1 µM)	relative viability (Bleomycin + Vorinostat; first compound 0.01 µM)	relative viability (Bleomycin + Vorinostat; first compound 0.03162 µM)	relative viability (Bleomycin + Vorinostat; first compound 0.1 µM)	relative viability (Bleomycin + Vorinostat; first compound 0.3162 µM)	relative viability (Bleomycin + Vorinostat; first compound 1 µM)
NCI-H647	0.166	0.284	0.112	0.0842	0.0575	0.205	0.132	0.105	0.0704	0.0607
A-427	0.7	0.748	0.542	0.353	0.241	0.753	0.768	0.717	0.46	0.271
EMC-BAC-2	0.96	1.05	1.08	0.607	0.415		0.472	0.36	0.28	0.18
NCI-H460	0.409	0.475	0.269	0.134	0.0663	0.4	0.221	0.158	0.0343	0.0306
LCLC-103H	0.7	0.8	0.792	0.666	0.418	0.678	0.625	0.704	0.654	0.417
HCC-827	0.195		0.199	0.148	0.167	0.857		0.736	0.585	0.207
NCI-H1355	0.783	0.9	0.783	0.63	0.323	0.599	0.627	0.676	0.325	0.207
NCI-H1734	0.485	0.449	0.325	0.21	0.151	0.612	0.623	0.472	0.231	0.15
HARA	0.281	0.299	0.306	0.226	0.244	0.458	0.469	0.317	0.258	0.173
HCC-15	1.07	1.03	1.13	0.579	0.599	0.77	0.864	0.702	0.327	0.249
LCLC-97TM1	0.135	0.141	0.102	0.0831	0.0741	0.179	0.15	0.18	0.106	0.0733
SK-LU-1						0.734	0.746	0.521	0.454	0.348
NCI-H1651	0.484	0.46	0.323	0.266	0.219	0.519	0.505	0.392	0.356	0.152
NCI-H2170	0.781	0.63	0.687	0.467	0.421	0.639	0.591	0.605	0.383	0.34
NCI-H2023						0.409	0.385	0.338	0.0999	0.114
LC-2-ad	0.761	0.775	0.644	0.316	0.26	0.62	0.609	0.466	0.236	0.2
NCI-H1703	0.131	0.139	0.128	0.122	0.114					
NCI-H1437	1.04	1.12	1.14	0.765	0.746	0.712	0.758	0.733	0.458	0.413
SW 1573						0.609	0.447	0.481	0.271	0.187
H3255	0.905	0.819	0.713	0.55	0.401	0.737	0.891	0.538	0.682	0.363

Cell Line	relative viability (Bleomycin + AZD7762; first compound 0.01 µM)	relative viability (Bleomycin + AZD7762; first compound 0.03162 µM)	relative viability (Bleomycin + AZD7762; first compound 0.1 µM)	relative viability (Bleomycin + AZD7762; first compound 0.3162 µM)	relative viability (Bleomycin + AZD7762; first compound 1 µM)	relative viability (Bleomycin + Vorinostat; first compound 0.01 µM)	relative viability (Bleomycin + Vorinostat; first compound 0.03162 µM)	relative viability (Bleomycin + Vorinostat; first compound 0.1 µM)	relative viability (Bleomycin + Vorinostat; first compound 0.3162 µM)	relative viability (Bleomycin + Vorinostat; first compound 1 µM)
NCI-H1792	0.615	0.635	0.716	0.253	0.141					
SK-MES-1						0.839	0.936	0.903	0.471	0.235
NCI-H1650						0.36	0.241	0.22	0.146	0.169
NCI-H2126	0.932	0.963	1.15	0.894	0.922	0.785	0.692	0.771	0.442	0.5
HCC-366	0.305	0.231	0.156	0.065	0.0338	0.115	0.135	0.0903	0.0328	0.0275
NCI-H838	0.701	0.68	0.661	0.594	0.649	0.571	0.41	0.274	0.267	0.265
LU99A	0.298	0.261	0.203	0.157	0.121	0.394	0.392	0.353	0.207	0.125
NCI-H650	0.949	1.07	0.723	0.515	0.36	0.295	0.441	0.376	0.328	0.212
HCC-78	0.607	0.683	0.599	0.528	0.493	0.388	0.362	0.487	0.399	0.391
NCI-H1755	0.41	0.495	0.36	0.353	0.311	0.606	0.736	0.714	0.521	0.636
NCI-H322M	0.529	0.523	0.564	0.436	0.416	0.815	0.888	0.818	0.577	0.647
NCI-H2342	0.5	0.611	0.495	0.589	0.42	0.786	0.735	0.652	0.551	0.491
PC-3 [JPC-3]	0.727	0.691	0.768	0.513	0.428	0.788	0.928	0.737	0.46	0.417
SW 900	0.525	0.591	0.392	0.264	0.24	0.403	0.513	0.427	0.207	0.217
NCI-H2405	0.668	0.683	0.632	0.531	0.304	0.792	1	0.816	0.59	0.321
NCI-H23	0.259	0.241	0.159	0.121	0.119	0.264	0.316	0.219	0.123	0.127
NCI-H1793	0.316	0.564	0.341	0.159	0.177	0.714	0.647	0.525	0.215	0.141
EKVX	0.607	0.598	0.544	0.538	0.237	0.724	0.611	0.607	0.366	0.411
HOP-62	0.325	0.292	0.209	0.16	0.0932	0.277	0.277	0.179	0.102	0.0753
NCI-H2228						0.637	0.557	0.486	0.17	0.22

Cell Line	relative viability (Bleomycin + AZD7762; first compound 0.01 µM)	relative viability (Bleomycin + AZD7762; first compound 0.03162 µM)	relative viability (Bleomycin + AZD7762; first compound 0.1 µM)	relative viability (Bleomycin + AZD7762; first compound 0.3162 µM)	relative viability (Bleomycin + AZD7762; first compound 1 µM)	relative viability (Bleomycin + Vorinostat; first compound 0.01 µM)	relative viability (Bleomycin + Vorinostat; first compound 0.03162 µM)	relative viability (Bleomycin + Vorinostat; first compound 0.1 µM)	relative viability (Bleomycin + Vorinostat; first compound 0.3162 µM)	relative viability (Bleomycin + Vorinostat; first compound 1 µM)
NCI-H358	0.417	0.579	0.551	0.426	0.446	0.539	0.722	0.661	0.327	0.217
EPLC-272H	0.208	0.192	0.145	0.114	0.112	0.296	0.323	0.223	0.12	0.0952
RERF-LC-KJ	0.905	0.848	0.492	0.278	0.179	0.489	0.55	0.421	0.344	0.25
NCI-H661						0.777	0.708	0.565	0.376	0.346
PC-14	0.254	0.347	0.187	0.0884	0.0848	0.414	0.406	0.198	0.0393	0.0658
COR-L 105						0.716	0.719	0.617	0.435	0.486
NCI-H3122	0.972	0.991	0.966	0.379	0.33	1.15	0.882	0.823	0.517	0.334
NCI-H1395	0.371	0.401	0.352	0.392	0.324	0.574	0.656	0.403	0.35	0.359
NCI-H727	0.683	0.574	0.451	0.33	0.463	1.18	1.17	1.08	0.618	0.93
NCI-H1915	0.53	0.552	0.314	0.221	0.137	0.377	0.383	0.291	0.162	0.116
NCI-H522	0.76	0.796	0.65	0.519	0.468	0.979	0.911	0.739	0.525	0.374
CAL-12T	0.497	0.603	0.436	0.289	0.24	0.542	0.532	0.351	0.166	0.155
NCI-H2087	0.981	1.2	1.31	0.976	0.512	0.441	0.76	0.329	0.0956	0.15
LXF-289	1.01	1.07	0.928	0.419	0.143	0.723	0.718	0.614	0.331	0.167
NCI-H520						0.592	0.743	0.589	0.574	0.416
NCI-H2009						0.662	0.739	0.854	0.541	0.36
IA-LM						0.791	0.802	0.801	0.398	0.635
COR-L23						0.273	0.392	0.218	0.104	0.0886
